PMC9762759, “High-throughput discovery of novel small-molecule inhibitors of acid Ceramidase” (Journal of Enzyme Inhibition and Medicinal Chemistry, 2022)

Experiments:
acid ceramidase (AC) = biological target: T1, acid ceramidase (AC) (Homo sapiens, UniProt Q13510); experiment: Acid ceramidase HTS assay, 384-well fluorogenic (RBM14-C12), cell lysates; assay type: biochemical; details: for IC50: dose-titration, 8-point two-fold dilution from 200 micromolar, 95% confidence interval in brackets, means of three replicates; for inhibition at 20 µM: primary assay, single-point concentration of 20 μM, lysates of AC-overexpressing A375 melanoma cells, substrate RBM14-C12 20 µM, pH 4.5
T1 construct: expressed in transfected cells
T1 sequence (Q13510 22-395): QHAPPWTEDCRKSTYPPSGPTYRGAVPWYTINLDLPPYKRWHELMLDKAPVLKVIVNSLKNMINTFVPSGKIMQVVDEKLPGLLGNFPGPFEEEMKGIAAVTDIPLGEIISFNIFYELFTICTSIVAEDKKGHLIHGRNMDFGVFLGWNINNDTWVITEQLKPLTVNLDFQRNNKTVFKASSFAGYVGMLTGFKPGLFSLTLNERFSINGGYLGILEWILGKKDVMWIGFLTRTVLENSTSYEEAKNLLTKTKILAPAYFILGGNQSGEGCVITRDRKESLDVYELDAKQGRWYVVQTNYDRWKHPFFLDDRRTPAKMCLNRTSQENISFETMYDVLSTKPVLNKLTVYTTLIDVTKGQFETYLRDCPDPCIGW
Description: To start with, the final reaction volume was adapted from 100 µL (96-well-format) to 32 µL (384 well-format) with a final concentration of substrate of 20 µM. Next, protein concentration was adjusted using cell lysates of AC-overexpressing A375 melanoma cells. Ideally, the optimal amount of protein is the one that ensures reaction linearity over a period of time together with less than 10% of substrate depletion, in order to assume that the enzyme operates at steady-state conditions. Thus, different amounts of cell lysates were mixed with the substrate and product formation was measured over 1 h. […] Finally, an amount of 0.4 µg of protein was chosen, as higher amounts of proteins were not in the linear portion whereas lower amounts would compromise the signal window. The optimal incubation time of the reaction mixture was next explored. […] As a first validation step, we performed a control run consisting of 60 wells representing AC activity and 60 wells representing the signal in absence of the enzyme. […] The calculated coefficients of variation (CV) for both the high and low controls were 6.08% and 17.1% respectively.
After having successfully established the optimal reaction conditions in a 384-well format, we employed this newly miniaturised AC assay in a pilot screen against a library of 4100 compounds. The screen was carried out at a single dose of 20 µM for each library compound in 6% DMSO (v/v) and in duplicate. The acid ceramidase inhibitor SOCLAC was used as a pharmacological control for the assay. The Z’-factor per plate were consistent with those obtained during the initial validation. […] An example hit map from one screening plate is shown (Figure 2(C)). The inhibitory activity of these hits was then validated in an additional assay performed at a single-point concentration in triplicates.
To confirm the results from the primary screening, top hits were cherry-picked and tested in a concentration-dependent response assay with triplicates per sample. Thus, 101 compounds were then subjected to 8-points two-fold dilution series starting at a maximum concentration of 200 micromolar.
(§1) The A375 cell line stably overexpressing ASAH1 under the control of a tetracycline/doxycycline-responsive promoter was kindly provided by Dr. Carmen Bedia and Prof. Thierry Levade[17]. The antibiotic selection of this cell line was performed with blasticidin (3 µg/mL) and hygromycin B (250 µg/mL). Ectopic expression of AC was induced with doxycycline at 1 µg/mL for 24 h before use. Cells were suspended in the appropriate volume of a 0.25 M saccharose solution with the proteases inhibitors aprotinin (1 mg/mL), leupeptin (1 mg/mmL) and PMSF (100 mM). The suspension was submitted to three cycles of a 5 s sonication (probe) at 10 watts/5 s resting on ice. The cell lysate was centrifuged at 600 g for 5 min. The supernatant was collected and protein concentration was determined with BSA as a standard using the bicinchoninic acid (BCA) protein determination kit (Thermo Scientific) according to the manufacturer’s instructions.
A previously described 96-well plate assay[25] was miniaturised into a 384-well plate format with a final reaction volume of 32 µL. Plated compounds were diluted with a mixture of DMSO/H2O (1.6 µL/18 µL), and after centrifugation, 3.2 µL were dispensed into a new 384-well plate, so that the final concentration of the compound in the final reaction volume of 32 µL was 20 µM and the DMSO content of the assay was 1%. Next, 20.8 µL of a substrate solution of RBM14-C12 in sodium acetate buffer (25 mM, pH 4.5) was added for a final concentration of 20 µM, followed by the addition of 8 µL of a 0.25 M sucrose solution of cell lysates from AC-overexpressing A375 melanoma cells containing 0.4 µg of protein The reaction was terminated after 60 min incubation at 37 °C by adding 8 µL of methanol. Oxidation was performed by treatment with 32 µL of a [2.5 mg/mL] solution of NaIO4 in 100 mM glycine-NaOH buffer (pH 10.6). […]

[1] = biological target: T2, acid ceramidase in AC overexpressing A375 cells (Homo sapiens, UniProt Q13510); experiment: Fluorogenic ceramidase activity assay in intact cells (RBM14-C12); assay type: cell-based; details: for inhibition at 20 µM: A-375, single-point concentration of 20 µM, 3 h, triplicate
T2 construct: expressed in transfected cells
T2 sequence (Q13510 22-395): T1 sequence (Q13510 22-395)
Description: Cell-based assays allow evaluating biological activity in a more physiologically relevant system that also considers additional factors that might have a positive impact on inhibitory potency such as permeabilization through cellular membranes, metabolisation or concentration by intracellular compartmentalisation. Thus, the activity of the nine selected hits was next examined in intact cells using AC overexpressing A375 cells and the fluorogenic substrate RBM14-C12. First, compounds were tested in a primary screening assay. Measurements were performed in triplicated at a single-point concentration of 20 µM.
as §1
To determine activity in intact cells, 2 × 10^4 cells/well were seeded in 96-well plates 24 h prior to the assay and maintained at 37 °C and 5% CO2. Overexpression of AC was induced with doxycycline at 1 µg/mL for 24 h. […] After incubation at 37 °C for 1 h in the dark, 100 µL/well of 100 mM glycine-NaOH buffer (pH 10.6) were added and fluorescence was measured spectrophotometrically at excitation and emission wavelengths of 355 and 460 nm, respectively. […]

[2] = biological target: T3, recombinant human NC (rhNC) (Homo sapiens, UniProt Q9NR71); experiment: Neutral ceramidase assay, fluorogenic substrate RBM14-C24:1; assay type: biochemical; details: single-point concentration of 50 μM; means of three replicates
T3 construct: purchased R&D Systems
T3 sequence (Q9NR71 whole entry): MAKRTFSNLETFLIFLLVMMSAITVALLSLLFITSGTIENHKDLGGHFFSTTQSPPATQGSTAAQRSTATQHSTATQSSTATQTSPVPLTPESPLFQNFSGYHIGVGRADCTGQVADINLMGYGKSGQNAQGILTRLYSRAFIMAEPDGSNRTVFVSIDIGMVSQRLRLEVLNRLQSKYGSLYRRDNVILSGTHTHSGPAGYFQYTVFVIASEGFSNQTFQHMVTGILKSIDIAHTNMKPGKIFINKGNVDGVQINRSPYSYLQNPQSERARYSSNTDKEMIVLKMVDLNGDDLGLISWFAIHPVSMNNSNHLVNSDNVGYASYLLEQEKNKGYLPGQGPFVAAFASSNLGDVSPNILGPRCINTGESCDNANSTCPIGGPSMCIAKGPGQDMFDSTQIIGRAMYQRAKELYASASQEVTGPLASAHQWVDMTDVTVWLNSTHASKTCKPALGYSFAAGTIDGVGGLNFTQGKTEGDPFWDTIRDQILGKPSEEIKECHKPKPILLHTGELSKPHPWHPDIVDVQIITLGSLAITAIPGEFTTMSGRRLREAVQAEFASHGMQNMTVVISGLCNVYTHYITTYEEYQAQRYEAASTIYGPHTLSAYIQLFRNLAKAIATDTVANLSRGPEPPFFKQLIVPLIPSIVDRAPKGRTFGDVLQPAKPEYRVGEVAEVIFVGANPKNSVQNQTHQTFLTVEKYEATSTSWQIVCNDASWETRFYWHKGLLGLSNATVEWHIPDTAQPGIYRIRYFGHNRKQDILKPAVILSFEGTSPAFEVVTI
Description: As mentioned above, hydrolysis of ceramides occurs by the action of ceramidases which are encoded by five known genes and are distinguished by the pH required for optimal activity. A common problem with AC inhibitors, especially those one with a scaffold related to the structure of ceramide, is the lack of selectivity over other ceramidases. Thus, to discard a selectivity issue, the activity of nine detected hits against neutral ceramidase was next explored at 50 µM. Activity over NC was tested using recombinant human NC (rhNC) and a specific NC substrate bearing a nervonic acid amide (RBM14-C24:1)[30]. Remarkably, none of the molecules elicited a significant inhibitory activity, thereby confirming the selective inhibition of AC over NC (Supplemental Table 1).
The NC assay was performed in 96-well plates at a final volume of 100 µL/well. Reaction buffers was 25 mM phosphate buffer 150 mM NaCl 1% (NaChol) pH 7.4. The reaction mixtures contained 25 µL/well of protein (5 ng recombinant NC R&D Systems, >95% pure), 70 µL/well of substrate (prepared from 4 mM stock solutions in ethanol) and 5 µL/well of inhibitor (prepared from 1 mM stock solutions in DMSO/H2O). Reaction mixtures were incubated at 37 °C for 1 h and reactions were stopped with 25 µL/well of MeOH followed by 100 µL/well of NaIO4 (2.5 mg/mL in 100 mM glycine-NaOH buffer, pH 10.6). After incubation at 37 °C for 1 h in the dark, 100 µL/well of 100 mM glycine-NaOH buffer (pH 10.6) was added and fluorescence was measured spectrophotometrically at excitation and emission wavelenght of 355 and 460 nm, respectively. The same reaction mixtures without enzymes were used as blanks.

## CN(CCc1ccccn1)S(=O)(=O)c1cccc(Br)c1 [W000113402_C12]
Acid ceramidase (AC)
  IC50: 10.6 µM
  inhibition at 20 µM: 75.5%
[1]
  inhibition at 20 µM: 53%
[1]; interval (24.3–44.7) printed, read-out: IC50 in the cell-based assay
  IC50: 32 µM
[2]
  inhibition at 50 µM: -5.9%

## CC1CCCCN1C(=O)Nc1ccc(Oc2ccccc2)cc1 (centres unmarked) [W000113402_O07]
Acid ceramidase (AC)
  IC50: 7.9 µM
  inhibition at 20 µM: 53.8%
[2]
  inhibition at 50 µM: 8.5%

## CCC(CC)(c1ccc(OCC2(C(C)(C)C)OCCO2)c(C)c1)c1cc(C)c2oc(C(=O)NCC(=O)O)cc2c1 [W000113414_I13]
Acid ceramidase (AC)
  inhibition at 20 µM: 67.4%
[2]
  inhibition at 50 µM: 22.9%

## CC(C)(C)CC(=O)N1CCN(c2cccc(C(F)(F)F)c2)CC1 [W000113414_C16]
Acid ceramidase (AC)
  IC50: 48.9 µM
  inhibition at 20 µM: 59%
[2]
  inhibition at 50 µM: -4.1%

## Cc1cc(O[C@H](c2ccc(C(=O)NC[C@H](O)C(=O)O)s2)C(C)C)cc(C)c1-c1ccc(C(F)(F)F)cc1 [W000113414_H19]
Acid ceramidase (AC)
  IC50: 11.1 µM
  inhibition at 20 µM: 61.4%
[1]
  inhibition at 20 µM: 32%
[2]
  inhibition at 50 µM: -8.9%

## CCCCc1ccc(C(=O)CCC2C(=O)c3ccccc3C2=O)cc1 [W000113414_D15]
Acid ceramidase (AC)
  IC50: 36.7 µM
  inhibition at 20 µM: 60.4%
[2]
  inhibition at 50 µM: -1.3%

## CC(OC(=O)c1c2c(nc3ccccc13)/C(=C/c1cccs1)CC(C(C)(C)C)C2)C(=O)Nc1ccc(C(N)=O)cc1 (centres unmarked) [W000113400_H06]
Acid ceramidase (AC)
  IC50: 15.8 µM
  inhibition at 20 µM: 41.7%
[2]
  inhibition at 50 µM: 35.6%

## Cc1ccc(CN2CC(C(=O)N(C)Cc3ccc(Cl)c(Cl)c3)CC2=O)cc1 (centres unmarked) [W000113407_J11]
Acid ceramidase (AC)
  IC50: 23.9 µM
  inhibition at 20 µM: 59.2%
[2]
  inhibition at 50 µM: 20.8%

## C=CCNC(=S)Nc1ccc(Cl)c([N+](=O)[O-])c1 [W000113403_I18]
Acid ceramidase (AC)
  IC50: 10.6 µM
  inhibition at 20 µM: 63.4%
[2]
  inhibition at 50 µM: 23.4%
